“And” between values parts separate entries of the source, which are not always exact repeats. Equal values may be shown once. Some results are limits rather than exact numbers.

Experiment [1] concerns the target Glycogen synthase kinase-3 alpha (Homo sapiens, UniProt P49840). In words: TR-FRET Assay. A digest of the protocol:
(§1)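 Signal is measured as TR-FRET between a terbium anti-phospho-Ser641 antibody and streptavidin-d2, added after an EDTA quench. Compounds are preincubated 30 min in assay buffer.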

Experiment [2] addresses Glycogen synthase kinase-3 beta (Homo sapiens, UniProt P49841). Nature of the experiment: TR-FRET Assay. In short, it runs like this: as §1

Chain of Glycogen synthase kinase-3 alpha (P49840 whole entry): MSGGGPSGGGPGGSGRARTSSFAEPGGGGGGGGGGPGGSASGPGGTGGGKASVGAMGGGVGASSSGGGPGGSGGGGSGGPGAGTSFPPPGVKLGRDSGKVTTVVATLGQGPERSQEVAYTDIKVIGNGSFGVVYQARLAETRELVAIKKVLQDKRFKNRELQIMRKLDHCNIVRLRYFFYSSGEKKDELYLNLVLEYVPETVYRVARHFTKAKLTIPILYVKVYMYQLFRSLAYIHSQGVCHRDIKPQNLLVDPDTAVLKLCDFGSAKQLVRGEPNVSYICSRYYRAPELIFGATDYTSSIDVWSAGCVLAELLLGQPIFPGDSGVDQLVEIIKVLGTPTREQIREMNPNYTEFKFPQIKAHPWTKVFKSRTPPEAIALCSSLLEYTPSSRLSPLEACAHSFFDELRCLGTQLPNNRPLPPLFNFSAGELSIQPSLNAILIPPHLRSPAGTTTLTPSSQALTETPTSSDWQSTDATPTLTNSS
Chain of Glycogen synthase kinase-3 beta (P49841 whole entry): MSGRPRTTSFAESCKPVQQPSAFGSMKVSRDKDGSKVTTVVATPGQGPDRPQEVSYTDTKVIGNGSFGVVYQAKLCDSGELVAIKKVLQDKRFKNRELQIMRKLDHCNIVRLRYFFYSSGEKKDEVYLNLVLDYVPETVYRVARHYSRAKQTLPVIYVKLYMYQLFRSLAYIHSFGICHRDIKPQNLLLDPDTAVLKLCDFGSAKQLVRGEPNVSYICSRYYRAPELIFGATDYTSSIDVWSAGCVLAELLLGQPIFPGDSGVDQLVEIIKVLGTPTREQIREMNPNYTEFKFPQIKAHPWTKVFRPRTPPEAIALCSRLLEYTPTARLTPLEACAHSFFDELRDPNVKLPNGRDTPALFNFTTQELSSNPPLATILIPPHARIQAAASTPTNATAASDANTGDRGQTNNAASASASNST

In the case of `CCC1(c2cccc(S(C)(=O)=O)c2)C2=C(CC(C)(C)NC2=O)NC2N=NC(C)=C21` (configuration not stated) [US20250313563, Compound 947395B:], the IC50 in experiment [1] and in experiment [2] was below 0.1 µM throughout.
For the molecule `CCC1(c2cccc(N(C)C(C)=O)c2)C2=CN=NC2NC2=C1C(=O)CC(C)(C)C2` (configuration not stated) [US20250313563, Compound 801319], the IC50 in experiment [1] and in experiment [2] was below 0.1 µM in each case.
Consider `CC1(C)CC(=O)C2=C(C1)NC1=C(CN=N1)C21COC2(CN(C(=O)C3CC3)C2)C1` (configuration not stated) [US20250313563, Compound 947297], for which the concentration for half-maximal inhibition (IC50) in experiment [1] and in experiment [2] was below 0.1 µM in each case.
`CC[C@]1(c2ccccc2)C2=C(CC(C)(C)CC2=O)NC2N=NC(C(F)F)=C21` (some centres not stated) [US20250313563, Compound 874511]: the half-maximal inhibitory concentration (IC50) in experiment [1] is below 0.1 µM; in experiment [2] it was 0.1 to 1 µM.
For `CC1(C)CC(=O)C2=C(C1)NC1=C(CN=N1)C21Cc2ccccc21` (configuration not stated) [US20250313563, Compound 917226] the same measures were 0.1 to 1 µM and 0.1 to 1 µM.
The corresponding values for `CC1(C)CC(=O)C2=C(C1)NC1=C(CN=N1)C21CCC(S(C)(=O)=O)CC1` (configuration not stated) [US20250313563, Compound 913356] are below 0.1 µM and below 0.1 µM.
On to `CCC1(c2cccc(C(F)(F)F)c2)C2=CN=NC2NC2=C1C(=O)N(c1cnn(C)c1C)CC2` (configuration not stated) [US20250313563, Compound 950612], for which the half-maximal inhibitory concentration (IC50) in experiment [1] was below 0.1 µM; in experiment [2] it was 1 to 5 µM.
On to `CC1(C)CC(=O)C2=C(C1)NC1=C(CN=N1)C21CCN(S(=O)(=O)c2cnc3cccnn23)CC1` [US20250313563, Compound 948120], for which the IC50 is < 0.1 µM and 0.1 to 1 µM in experiment [1]; < 0.1 µM and 1 to 5 µM in experiment [2].
On to `COc1cncc(S(=O)(=O)N2CCC3(CC2)C2=C(N=NC2)NC2=C3C(=O)CC(C)(C)C2)c1` [US20250313563, Compound 947465], for which the IC50 in experiment [1] and in experiment [2] was below 0.1 µM in each case.
Consider `Cn1cc(CN2CC3(C2)C2=C(N=NC2)NC2=C3C(=O)CC(C)(C)C2)cn1` [US20250313563, Compound 929439], for which the IC50 in experiment [1] and in experiment [2] was above 5 µM throughout.
For the molecule `CC[C@]1(c2cccc(-c3cc(C)ncc3C)c2)C2=CN=NC2NC2=C1C(=O)CC(C)(C)C2` (some centres not stated) [US20250313563, Compound 943514], the half-maximal inhibitory concentration (IC50) in experiment [1] and in experiment [2] was below 0.1 µM each time.
For the molecule `CCC1(c2cccc(C(F)(F)F)c2)C2=CN=NC2NC2=C1C(=O)NC(c1ccccc1)C2` (configuration not stated) [US20250313563, Compound 917284], the IC50 in experiment [1] fell in the range of 0.1 to 1 µM; in experiment [2], 1 to 5 µM.
For `C[C@H]1CCC[C@]2(C1)C1=C(N=NC1)NC1=C2C(=O)CC(C)(C)C1` [US20250313563, Compound 893319] the same measures were 0.1 to 1 µM and 0.1 to 1 µM.
Turning to `CC[C@]1(c2cccc(N(C)c3ncccn3)c2)C2=C(CC(C)(C)NC2=O)NC2N=NC(C(F)(F)F)=C21` (some centres not stated) [US20250313563, Compound 949180], the results for the half-inhibitory concentration (IC50) in experiment [1] and in experiment [2] were below 0.1 µM and 0.1 to 1 µM, respectively.
In the case of `CC1(C)CC(=O)C2=C(C1)NC1=C(CN=N1)C21CN(CC(F)(F)F)C1` [US20250313563, Compound 912074], the concentration for half-maximal inhibition (IC50) in experiment [1] is below 0.1 µM; in experiment [2], 0.1 to 1 µM.
Take `CC1(C)CC(=O)C2=C(C1)NC1=C(CN=N1)C21CCN(S(=O)(=O)c2ccccc2F)CC1` [US20250313563, Compound 901465]: the IC50 was below 0.1 µM in experiment [1]; < 0.1 µM and 0.1 to 1 µM in experiment [2].
As to `CN1C[C@]2(C3=C(CC(C)(C)CC3=O)NC3N=NC(CC(C)(C)C)=C32)c2ccccc21` (some centres not stated) [US20250313563, Compound 125978], the 50% inhibitory concentration (IC50) is 1 to 5 µM in experiment [1] and 0.1 to 1 µM in experiment [2].
In the case of `Cn1cncc1-c1cccc([C@]2(C)C3=C(CC(C)(C)CC3=O)NC3=C2C(CC(C)(C)C)N=N3)c1` (some centres not stated) [US20250313563, Compound 126014], the IC50 in experiment [1] and in experiment [2] was 0.1 to 1 µM each time.
For `CC[C@@]1(c2cc(-c3cnn(C)c3)ccc2F)C2=CN=NC2NC2=C1C(=O)CC(C)(C)C2` (some centres not stated) [US20250313563, Compound 909223], the concentration for half-maximal inhibition (IC50) in experiment [1] and in experiment [2] was above 5 µM in each case.
Regarding `CC[C@@]1(c2cccc(-c3cnn(C4CC4)c3)c2)C2=CN=NC2NC2=C1C(=O)CC(C)(C)C2` (some centres not stated) [US20250313563, Compound 913041], the IC50 was 1 to 5 µM in experiment [1] and above 5 µM in experiment [2].
The corresponding values for `CC1(C)CC(=O)C2=C(C1)NC1N=NC=C1[C@]21CCCc2ccccc21` (some centres not stated) [US20250313563, Compound 930566] are below 0.1 µM and 0.1 to 1 µM.
Consider `CC[C@@]1(c2cccc(-c3ccncc3C(F)(F)F)c2)C2=C(N=NC2)NC2=C1C(=O)C(C)(C)C2` [US20250313563, Compound 952757], for which the IC50 in experiment [1] is 1 to 5 µM; in experiment [2] it was above 5 µM.
For `CC[C@]1(c2cccc(N(C)c3cncnc3)c2)C2=CN=NC2NC2=C1C(=O)CC(C)(C)C2` (some centres not stated) [US20250313563, Compound 915400] the same measures were below 0.1 µM and below 0.1 µM.
For `CC[C@@]1(c2cccc(-c3cnn(-c4ccccc4)c3F)c2)C2=CN=NC2NC2=C1C(=O)NC(C)(C)C2` (some centres not stated) [US20250313563, Compound 950821] the same measures were 0.1 to 1 µM and 1 to 5 µM.
As to `CC(C)(C)CC1=C2C(N=N1)NC1=C(C(=O)CC(C)(C)C1)C21CCc2c(F)cccc21` (configuration not stated) [US20250313563, Compound 789524], the results for the IC50 in experiment [1] and in experiment [2] were 0.1 to 1 µM and below 0.1 µM, respectively.
For `CCC1(c2cccc(-c3ccnnc3)c2)C2=CN=NC2NC2=C1C(=O)CC(C)(C)C2` (configuration not stated) [US20250313563, Compound 927342] the same measures were below 0.1 µM and below 0.1 µM.
Take `CC[C@]1(c2cccc(-c3cc(C)ncc3C)c2)C2=C(CC(C)(C)CC2=O)NC2N=NC(C)=C21` (some centres not stated) [US20250313563, Compound 913050]: the half-inhibitory concentration (IC50) was below 0.1 µM in experiment [1]; < 0.1 µM and 0.1 to 1 µM in experiment [2].
For `CC1(C)CC(=O)C2=C(NC3=C(CN=N3)[C@]23CC[C@@H](C(F)(F)F)CC3)C1F` (some centres not stated) [US20250313563, Compound 917135], the results for the concentration for half-maximal inhibition (IC50) in experiment [1] and in experiment [2] were below 0.1 µM and 0.1 to 1 µM, respectively.
For `CC[C@@]1(c2cccc(C(F)(F)F)c2)C2=CN=NC2NC2=C1C(=O)N(Cc1ccccc1)CC2` (some centres not stated) [US20250313563, Compound 912006] the same measures were above 5 µM and above 5 µM.
For the molecule `CC[C@@]1(c2cccc(-c3c(C)nnn3C)c2)C2=CN=NC2NC2=C1C(=O)CC(C)(C)C2` (some centres not stated) [US20250313563, Compound 946100], the IC50 is 0.1 to 1 µM in experiment [1] and 1 to 5 µM in experiment [2].
For the molecule `CCC1(c2cccc(-c3cnc4n3CCCC4)c2)C2=CN=NC2NC2=C1C(=O)CC(C)(C)C2` (configuration not stated) [US20250313563, Compound 943535], the half-maximal inhibitory concentration (IC50) in experiment [1] and in experiment [2] was below 0.1 µM throughout.
In the case of `CCC1(c2cccc(N(Cc3ccccc3)C(C)=O)c2)C2=CN=NC2NC2=C1C(=O)CC(C)(C)C2` (configuration not stated) [US20250313563, Compound 884110], the IC50 in experiment [1] and in experiment [2] was below 0.1 µM throughout.
For the molecule `CC[C@@]1(c2cccc(-c3ccnc(C(F)F)c3)c2)C2=CN=NC2NC2=C1C(=O)NC(C)(C)C2` (some centres not stated) [US20250313563, Compound 950561], the IC50 in experiment [1] is below 0.1 µM; in experiment [2] it was 0.1 to 1 µM.
The corresponding values for `CC[C@]1(c2cccc(-c3ccnc(CCO)c3)c2)C2=CN=NC2NC2=C1C(=O)CC(C)(C)C2` (some centres not stated) [US20250313563, Compound 947816] are 1 to 5 µM and above 5 µM.
For `COc1cc(S(=O)(=O)N2CCC3(CC2)C2=C(N=NC2)NC2=C3C(=O)CC(C)(C)C2)ccc1Cl` [US20250313563, Compound 945669] the same measures were below 0.1 µM and below 0.1 µM.
The corresponding values for `CC[C@@]1(c2cccc(C(F)(F)F)c2)C2=CN=NC2NC2=C1C(=O)N(c1cscn1)CC2` (some centres not stated) [US20250313563, Compound 952638] are above 5 µM and above 5 µM.
Take `CC1(C)CC(=O)C2=C(C1)NC1=C(CN=N1)C21CCC(F)(F)CC1` [US20250313563, Compound 883972]: the figures for the IC50 in experiment [1] and in experiment [2] were below 0.1 µM and 0.1 to 1 µM, respectively.
As to `C[C@@H]1CC[C@@]2(C1)C1=C(N=NC1)NC1=C2C(=O)CC(C)(C)C1` [US20250313563, Compound 897750], the half-maximal inhibitory concentration (IC50) in experiment [1] and in experiment [2] was below 0.1 µM throughout.
Consider `CC[C@]1(c2cccc(C(F)(F)F)c2)C2=C(N=NC2)NC2=C1C(=O)C(C)(C)C2` [US20250313563, Compound 950272], for which the IC50 in experiment [1] is below 0.1 µM; in experiment [2] it was 0.1 to 1 µM.
The corresponding values for `C[C@@H]1CC(=O)C2=C(C1)NC1=C(CN=N1)C21CCOCC1` [US20250313563, Compound 912079] are 0.1 to 1 µM and 0.1 to 1 µM.
In the case of `CCC1(c2cccc(-c3cn(C)nc3C)c2)C2=CN=NC2NC2=C1C(=O)NC1(CCS(=O)(=O)CC1)C2` (configuration not stated) [US20250313563, Compound 950813], the IC50 in experiment [1] was below 0.1 µM; in experiment [2] it was 0.1 to 1 µM.
For `CC[C@@]1(c2cccc(-c3ccncc3)c2)C2=CN=NC2NC2=C1C(=O)CC(C)(C)C2` (some centres not stated) [US20250313563, Compound 801413] the same measures were 0.1 to 1 µM and 1 to 5 µM.
The corresponding values for `CC[C@@]1(c2cccc(N3CCOCC3)c2)C2=C(CC(C)(C)NC2=O)NC2N=NC(C(F)(F)F)=C21` (some centres not stated) [US20250313563, Compound 949013] are below 0.1 µM and below 0.1 µM.
`CCC1(c2cccc(N3CCCC3)c2)C2=CN=NC2NC2=C1C(=O)CC(C)(C)C2` (configuration not stated) [US20250313563, Compound 801317]: the IC50 in experiment [1] and in experiment [2] was 0.1 to 1 µM each time.
Regarding `CCC1(c2cccc(NS(C)(=O)=O)c2)C2=CN=NC2NC2=C1C(=O)CC(C)(C)C2` (configuration not stated) [US20250313563, Compound 913253], the half-inhibitory concentration (IC50) in experiment [1] and in experiment [2] was below 0.1 µM in each case.
On to `CC1(C)CC(=O)C2=C(C1)NC1=C(CN=N1)C21CCN(S(=O)(=O)Cc2ccccc2)CC1` [US20250313563, Compound 929437], for which the IC50 is below 0.1 µM in experiment [1]; < 0.1 µM and 0.1 to 1 µM in experiment [2].

The values are drawn from BindingDB's records for patent US20250313563 (The Broad Institute, 2025).
